In US20250296959A1, “B7-H3 TARGETING PEPTIDES AND CONSTRUCTS THEREOF” (Mariana Oncology Inc., priority 2024, published 2025):
Starred links: 1 amine or outer side, 2 acyl side, 3 side chain; linkers in the order of their positions; H or OH if unused. Positions of bridges follow the written chain, without caps; N, C: chain ends. Non-standard residues stand in square brackets, D forms with d. Residues, ends and D or L forms follow the SMILES beside them. Groups on a side chain read outwards from the residue. *: point of attachment. Ala(piperidin-4-yl) = O=C([C@H](CC1CCN([*:3])CC1)N[*:1])[*:2]; X10 = C[C@@H](c1c[nH]c2ccc(F)cc12)[C@H](N[*:1])C(=O)[*:2]; DOTA = O=C(O)CN1CCN(CC(=O)O)CCN(CC(=O)*)CCN(CC(=O)O)CC1; Trp(5-Cl) = N[C@@H](Cc1c[nH]c2ccc(Cl)cc12)C(=O)O; Trp(5-F) = N[C@@H](Cc1c[nH]c2ccc(F)cc12)C(=O)O; γGlu = O=C(O)[C@H](CCC(=O)[*:2])N[*:1]; 1Nal = N[C@@H](Cc1cccc2ccccc12)C(=O)O; Ala(4-THP) = N[C@@H](CC1CCOCC1)C(=O)O; Phe(2-Me) = Cc1ccccc1C[C@H](N)C(=O)O; Val(3-OH) = CC(C)(O)[C@H](N)C(=O)O; PEG4 = NCCOCCOCCOCCOCCC(=O)O; Suc = O=C(CCC(=O)[*:2])[*:1]; Tle = CC(C)(C)[C@H](N)C(=O)O; hLeu = CC(C)CC[C@H](N)C(=O)O

target: T1, human 4lg B7-H3 (Homo sapiens, UniProt Q5ZPR3); test: Affinity determination by surface plasmon resonance (SPR) to 4Ig B7-H3; conditions: SPR KD—37° C., 4Ig B7-H3; 37° C. flow cell temperature
T1 sequence (Q5ZPR3 29-534): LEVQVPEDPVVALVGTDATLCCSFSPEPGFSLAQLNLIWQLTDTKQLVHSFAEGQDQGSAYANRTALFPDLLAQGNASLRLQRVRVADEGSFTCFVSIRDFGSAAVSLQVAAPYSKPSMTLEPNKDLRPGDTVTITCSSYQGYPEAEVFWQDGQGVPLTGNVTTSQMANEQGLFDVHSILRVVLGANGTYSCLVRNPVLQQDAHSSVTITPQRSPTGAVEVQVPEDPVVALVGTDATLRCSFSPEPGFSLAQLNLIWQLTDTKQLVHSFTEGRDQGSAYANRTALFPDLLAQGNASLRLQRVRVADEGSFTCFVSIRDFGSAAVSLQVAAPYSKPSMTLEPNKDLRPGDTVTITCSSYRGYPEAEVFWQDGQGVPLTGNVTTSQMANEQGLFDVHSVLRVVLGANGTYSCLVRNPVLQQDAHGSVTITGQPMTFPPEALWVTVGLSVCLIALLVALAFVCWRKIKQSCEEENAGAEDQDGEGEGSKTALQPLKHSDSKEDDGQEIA

`CC(=O)N[C@@H](CCC(C)C)C(=O)N[C@@H](Cc1ccc(O)cc1)C(=O)N[C@H]1CSSC[C@@H](C(=O)N[C@@H](Cc2c[nH]c3ccc(F)cc23)C(=O)N[C@@H](Cc2ccccc2)C(=O)N[C@H](C(=O)N[C@H](CCC(=O)O)C(=O)O)C(C)(C)O)NC(=O)[C@H](Cc2ccc(O)cc2)NC(=O)[C@H](C(C)C)NC(=O)[C@H](CC(=O)O)NC(=O)[C@H](CC2CCN(C(=O)CCOCCOCCOCCOCCNC(=O)CN3CCN(CC(=O)O)CCN(CC(=O)O)CCN(CC(=O)O)CC3)CC2)NC(=O)[C@H](CC2CCNCC2)NC(=O)CNC(=O)[C@H](C(C)(C)C)NC1=O` [compound 448, Ac-hLeu-Y-C-Tbg-G-PipAla-Pip(PEG4-DOTA)Ala-D-V-Y-C-5FW-F-hydroxyVal-dGlu-COOH] (Ac-[hLeu]YC[Tle]G[Ala(piperidin-4-yl)][Ala(piperidin-4-yl)]([PEG4-DOTA])DVYC[Trp(5-F)]F[Val(3-OH)][dE]-OH; disulfide 3-11) and `CC(=O)N[C@@H](CCC(C)C)C(=O)N[C@@H](Cc1ccc(O)cc1)C(=O)N[C@H]1CSSC[C@@H](C(=O)N[C@@H](Cc2cccc3ccccc23)C(=O)N[C@@H](Cc2ccccc2)C(=O)N[C@H](C(=O)N[C@H](CCC(=O)O)C(N)=O)C(C)(C)O)NC(=O)[C@H](Cc2ccc(O)cc2)NC(=O)[C@H](C(C)C)NC(=O)[C@H](CC(=O)O)NC(=O)[C@H](CC2CCN(C(=O)CCOCCOCCOCCOCCNC(=O)CN3CCN(CC(=O)O)CCN(CC(=O)O)CCN(CC(=O)O)CC3)CC2)NC(=O)[C@H](CC2CCNCC2)NC(=O)CNC(=O)[C@H](C(C)(C)C)NC1=O` [compound 454, Ac-hLeu-Y-C-Tbg-G-PipAla-Pip(PEG4-DOTA)Ala-D-V-Y-C-1Nal-F-hydroxyVal-dGlu-CONH2] (Ac-[hLeu]YC[Tle]G[Ala(piperidin-4-yl)][Ala(piperidin-4-yl)]([PEG4-DOTA])DVYC[1Nal]F[Val(3-OH)][dE]-NH2; disulfide 3-11) cannot be ordered by Kd: less than 1 nM for the first, less than 1 nM for the second.

`CC(=O)N[C@@H](CCC(C)C)C(=O)N[C@@H](Cc1ccc(O)cc1)C(=O)N[C@H]1CSSC[C@@H](C(=O)N[C@@H](Cc2c[nH]c3ccc(F)cc23)C(=O)N[C@@H](Cc2ccccc2)C(=O)N[C@H](C(=O)N[C@H](CO)C(=O)O)C(C)(C)O)NC(=O)[C@H](Cc2ccc(O)cc2)NC(=O)[C@H](C(C)C)NC(=O)[C@H](CC(=O)O)NC(=O)[C@H](CC2CCN(C(=O)CN3CCN(CC(=O)O)CCN(CC(=O)O)CCN(CC(=O)O)CC3)CC2)NC(=O)[C@H](CC2CCNCC2)NC(=O)CNC(=O)[C@H](C(C)(C)C)NC1=O` [compound 449, Ac-hLeu-Y-C-Tbg-G-PipAla-Pip(DOTA)Ala-D-V-Y-C-5FW-F-hydroxyVal-dSer-COOH] (Ac-[hLeu]YC[Tle]G[Ala(piperidin-4-yl)][Ala(piperidin-4-yl)](DOTA)DVYC[Trp(5-F)]F[Val(3-OH)][dS]-OH; disulfide 3-11) and `CC(=O)N[C@@H](CCC(C)C)C(=O)N[C@@H](Cc1ccc(O)cc1)C(=O)N[C@H]1CSSC[C@@H](C(=O)N[C@@H](Cc2c[nH]c3ccc(F)cc23)C(=O)N[C@@H](Cc2ccccc2)C(=O)N[C@H](C(=O)N[C@H](CCC(=O)O)C(N)=O)C(C)(C)O)NC(=O)[C@H](Cc2ccc(O)cc2)NC(=O)[C@H](C(C)C)NC(=O)[C@H](CC(=O)O)NC(=O)[C@H](CC2CCN(C(=O)CC[C@H](NC(=O)CN3CCN(CC(=O)O)CCN(CC(=O)O)CCN(CC(=O)O)CC3)C(=O)O)CC2)NC(=O)[C@H](CC2CCNCC2)NC(=O)CNC(=O)[C@H](C(C)(C)C)NC1=O` [compound 459, Ac-hLeu-Y-C-Tbg-G-PipAla-Pip(gE-DOTA)Ala-D-V-Y-C-5FW-F-hydroxyVal-dGlu-CONH2] (Ac-[hLeu]YC[Tle]G[Ala(piperidin-4-yl)][Ala(piperidin-4-yl)]([γGlu-DOTA])DVYC[Trp(5-F)]F[Val(3-OH)][dE]-NH2; disulfide 3-11) cannot be ordered by Kd: less than 1 nM for the first, less than 1 nM for the second.

First: CC(=O)N[C@@H](CCC(C)C)C(=O)N[C@@H](Cc1ccc(O)cc1)C(=O)N[C@H]1CSSC[C@@H](C(=O)N[C@H](C(=O)N[C@@H](Cc2ccccc2)C(=O)N[C@H](C(=O)N[C@H](CCCCNC(=O)CN2CCN(CC(=O)O)CCN(CC(=O)O)CCN(CC(=O)O)CC2)C(=O)O)C(C)(C)O)[C@@H](C)c2c[nH]c3ccc(F)cc23)NC(=O)[C@H](Cc2ccc(O)cc2)NC(=O)[C@H](C(C)C)NC(=O)[C@H](CC(=O)O)NC(=O)[C@H](CC2CCOCC2)NC(=O)[C@H](CC2CCNCC2)NC(=O)CNC(=O)[C@H](C(C)(C)C)NC1=O [compound 450, Ac-hLeu-Y-C-Tbg-G-PipAla-ThpA-D-V-Y-C-(2S,3S-betaMe-5FW)-F-hydroxyVal-dLys(DOTA)-COOH] (Ac-[hLeu]YC[Tle]G[Ala(piperidin-4-yl)][Ala(4-THP)]DVYC[X10]F[Val(3-OH)][dK](DOTA)-OH; disulfide 3-11)
Second: CC(=O)N[C@@H](CCC(C)C)C(=O)N[C@@H](Cc1ccc(O)cc1)C(=O)N[C@H]1CSSC[C@@H](C(=O)N[C@@H](Cc2c[nH]c3ccc(Cl)cc23)C(=O)N[C@@H](Cc2ccccc2)C(=O)N[C@H](C(=O)N[C@H](CCCCNC(=O)CN2CCN(CC(=O)O)CCN(CC(=O)O)CCN(CC(=O)O)CC2)C(=O)O)C(C)(C)O)NC(=O)[C@H](Cc2ccc(O)cc2)NC(=O)[C@H](C(C)C)NC(=O)[C@H](CC(=O)O)NC(=O)[C@H](CC2CCOCC2)NC(=O)[C@H](CC2CCNCC2)NC(=O)CNC(=O)[C@H](C(C)(C)C)NC1=O [compound 457, Ac-hLeu-Y-C-Tbg-G-PipAla-ThpA-D-V-Y-C-5ClW-F-hydroxyVal-dLys(DOTA)-COOH] (Ac-[hLeu]YC[Tle]G[Ala(piperidin-4-yl)][Ala(4-THP)]DVYC[Trp(5-Cl)]F[Val(3-OH)][dK](DOTA)-OH; disulfide 3-11)
The Kd of the first is higher: 1 to 10 nM for the first, less than 1 nM for the second. The second binds more tightly here.

First: CC(C)CC[C@H](NC(=O)CCC(=O)O)C(=O)N[C@@H](Cc1ccc(O)cc1)C(=O)N[C@H]1CSSC[C@@H](C(=O)N[C@@H](Cc2c[nH]c3ccc(F)cc23)C(=O)N[C@@H](Cc2ccccc2)C(=O)N[C@H](C(=O)N[C@H](CCCCNC(=O)CN2CCN(CC(=O)O)CCN(CC(=O)O)CCN(CC(=O)O)CC2)C(=O)O)C(C)(C)O)NC(=O)[C@H](Cc2ccc(O)cc2)NC(=O)[C@H](C(C)C)NC(=O)[C@H](CC(=O)O)NC(=O)[C@H](CC2CCOCC2)NC(=O)[C@H](CC2CCNCC2)NC(=O)CNC(=O)[C@H](C(C)(C)C)NC1=O [compound 451, C4diacid-hLeu-Y-C-Tbg-G-PipAla-ThpA-D-V-Y-C-5FW-F-hydroxyVal-dLys(DOTA)-COOH] (Suc-[hLeu]YC[Tle]G[Ala(piperidin-4-yl)][Ala(4-THP)]DVYC[Trp(5-F)]F[Val(3-OH)][dK](DOTA)-OH; disulfide 3-11)
Second: CC(=O)N[C@@H](CCC(C)C)C(=O)N[C@@H](Cc1ccc(O)cc1)C(=O)N[C@H]1CSSC[C@@H](C(=O)N[C@@H](Cc2c[nH]c3ccc(F)cc23)C(=O)N[C@@H](Cc2ccccc2)C(=O)N[C@H](C(=O)N[C@H](CCCCNC(=O)CC[C@H](NC(=O)CN2CCN(CC(=O)O)CCN(CC(=O)O)CCN(CC(=O)O)CC2)C(=O)O)C(N)=O)C(C)(C)O)NC(=O)[C@H](Cc2ccc(O)cc2)NC(=O)[C@H](C(C)C)NC(=O)[C@H](CC(=O)O)NC(=O)[C@H](CC2CCOCC2)NC(=O)[C@H](CC2CCNCC2)NC(=O)CNC(=O)[C@H](C(C)(C)C)NC1=O [compound 452, Ac-hLeu-Y-C-Tbg-G-PipAla-ThpA-D-V-Y-C-5FW-F-hydroxyVal-dLys(gE-DOTA)-CONH2] (Ac-[hLeu]YC[Tle]G[Ala(piperidin-4-yl)][Ala(4-THP)]DVYC[Trp(5-F)]F[Val(3-OH)][dK]([γGlu-DOTA])-NH2; disulfide 3-11)
The Kd of the first is higher: 1 to 10 nM for the first, less than 1 nM for the second. The second binds more tightly here.

`CC(=O)N[C@@H](CCC(C)C)C(=O)N[C@@H](Cc1ccc(O)cc1)C(=O)N[C@H]1CSSC[C@@H](C(=O)N[C@@H](Cc2cccc3ccccc23)C(=O)N[C@@H](Cc2ccccc2)C(=O)N[C@H](C(=O)N[C@H](C)C(=O)O)C(C)(C)O)NC(=O)[C@H](Cc2ccc(O)cc2)NC(=O)[C@H](C(C)C)NC(=O)[C@H](CC(=O)O)NC(=O)[C@H](CC2CCN(C(=O)CCOCCOCCOCCOCCNC(=O)CN3CCN(CC(=O)O)CCN(CC(=O)O)CCN(CC(=O)O)CC3)CC2)NC(=O)[C@H](CC2CCNCC2)NC(=O)CNC(=O)[C@H](C(C)(C)C)NC1=O` [compound 453, Ac-hLeu-Y-C-Tbg-G-PipAla-Pip(PEG4-DOTA)Ala-D-V-Y-C-1Nal-F-hydroxyVal-dAla-COOH] (Ac-[hLeu]YC[Tle]G[Ala(piperidin-4-yl)][Ala(piperidin-4-yl)]([PEG4-DOTA])DVYC[1Nal]F[Val(3-OH)][dA]-OH; disulfide 3-11) and `CC(=O)N[C@@H](CCC(C)C)C(=O)N[C@@H](Cc1ccc(O)cc1)C(=O)N[C@H]1CSSC[C@@H](C(=O)N[C@@H](Cc2c[nH]c3ccc(F)cc23)C(=O)N[C@@H](Cc2ccccc2C)C(=O)N[C@H](C(=O)N[C@H](CCCCNC(=O)CN2CCN(CC(=O)O)CCN(CC(=O)O)CCN(CC(=O)O)CC2)C(=O)O)C(C)(C)O)NC(=O)[C@H](Cc2ccc(O)cc2)NC(=O)[C@H](C(C)C)NC(=O)[C@H](CC(=O)O)NC(=O)[C@H](CC2CCOCC2)NC(=O)[C@H](CC2CCNCC2)NC(=O)CNC(=O)[C@H](C(C)(C)C)NC1=O` [compound 456, Ac-hLeu-Y-C-Tbg-G-PipAla-ThpA-D-V-Y-C-5FW-2MePhe-hydroxyVal-dLys(DOTA)-COOH] (Ac-[hLeu]YC[Tle]G[Ala(piperidin-4-yl)][Ala(4-THP)]DVYC[Trp(5-F)][Phe(2-Me)][Val(3-OH)][dK](DOTA)-OH; disulfide 3-11) cannot be ordered by Kd: less than 1 nM for the first, less than 1 nM for the second.
